In paper PMC8269107, “Lipidation of Temporin-1CEb Derivatives as a Tool for Activity Improvement, Pros and Cons of the Approach” (International Journal of Molecular Sciences, 2021):
≈ marks a conversion by molar mass, not a printed value. Where a SMILES comes first, the peptide text is derived from it. [ ]: non-standard residue; d: D form. The star is where a group is joined. Lauroyl = CCCCCCCCCCCC(=O)*; Pentanoyl = CCCCC(=O)*; AEEA = NCCOCCOCC(=O)O; βAla = NCCC(=O)O

What was measured:
[1] = Serum stability in 25% human serum (RP-UPLC); settings: male, amount of the intact compound, after 5 h of incubation in 25% human serum, 37 °C
Method: At the beginning of the experiment, 25% human serum (human serum, from human male AB plasma, Sigma-Aldrich) was centrifuged at 12,000 rpm for 10 min in order to remove the excessive amount of lipids in the serum preparation, and the supernatant was collected and incubated at 37 °C for 15 min under shaking. The assay was initiated upon the addition of the peptide to the serum yielding a final peptide concentration of 75 µg/mL. The 50 µL aliquots of the incubated mixtures were taken at the following time intervals: 0, 30, 60, 120, 240 and 300 min. The aliquots were mixed with 50 µL of absolute ethanol, incubated on ice for 15 min to precipitate serum proteins and then centrifuged (12,000 rpm, 10 min). The supernatants were collected and lyophilized. Dry samples were further dissolved in 100 µL of HPLC-grade water and then analyzed. […]
RP-UPLC analysis was performed using Nexera system (Shimadzu Europe GmbH, Duisburg, Germany) with C12 Jupiter Proteo column (150 × 2 mm, 90Å, 4 micron) (Phenomenex, USA) applying a linear aqueous acetonitrile gradient 1–80%B in 20 min using solutions A (0.1% TFA in water) and B (0.1%TFA in 80% acetonitrile) with a flow rate 0.6 mL/min and detection at 220 nm. The quantity of the intact peptide at each time point was expressed as a percentage of the peak area with respect to time “zero” (100%).

S. aureus USA300 = assay type: cell-based, Staphylococcus aureus
From the text: Escherichia coli (PCM 2057 = ATCC 25922), Staphylococcus aureus (PCM 2054 = ATCC 25923), Staphylococcus epidermidis (PCM 2118 = ATCC 14990), Bacillus subtilis (PCM 2224 = ATCC 9799), Bacillus cereus (PCM 482 = ATCC 10702) and Pseudomonas aeruginosa (PCM 499 = ATCC 10145) were obtained from the Polish Collection of Microorganisms. Fungi strains Candida albicans (CCM 8186 = CNTC 49/64), Candida glabrata (CCM 8270 = ATCC 90030), Candida parapsilosis (CCM 8260 = ATCC 22019) and Candida krusei (CCM 8271 = ATCC 6258) were acquired from the Czech Collection of Microorganisms. S. aureus USA300 (wild type strain), the reference strain of Klebsiella pneumoniae (ATCC 13883) and clinical isolates of Pseudomonas aeruginosa (PA1, PA2) collected from nonrelated patients admitted to the Stefan Zeromski Specialist Municipal Hospital in Krakow (Poland) were kindly provided by the research group of the Department of Microbiology, Faculty of Biochemistry, Biophysics and Biotechnology, Jagiellonian University, Krakow, Poland.
Luria-Bertani broth (LB) and Sabouraud Dextrose broth (SB) (Biocorp, Poland) were used for cultivation of bacteria and fungi strains, respectively. The antimicrobial activity of the peptides were analyzed through determination of MIC (minimal inhibitory concentration) parameters according to Clinical and Laboratory Standards (CLSI) guidelines developed for aerobic bacteria and yeasts, respectively. Mueller-Hinton broth (MHB) was used as the working medium for all bacterial strains, while in the case of fungi, RPMI-1640 (with L-glutamine, without sodium bicarbonate) growth medium buffered with MOPS (morpholinepropanesulfonic acid) and supplemented with 2% glucose was used. Inoculum was prepared from freshly grown cultures of microorganisms at their exponential phase of growth. […] Plates were then incubated for 24 h at 37 °C in the case of bacteria and at 35 °C in the case of fungi. After that time, absorbance was read at 590 nm with a Perkin Elmer plate reader. Cultures without peptide were treated as positive control, while uninoculated media were defined as negative control. All measurements were run at least in triplicate.

[2] = ITC, binding to zwitterionic membrane; settings: 25 °C; for pKITC: POPC LUVs
Method: The ITC experiments were performed according to the previously reported protocol in PBS (pH 7.4) at 25 °C using an AutoITC isothermal titration calorimeter (MicroCal Inc., Northampton, USA) with a 1.4491-mL sample and reference cells filled with distilled water. In each experiment, 29 injections of 10.02 µL each (2 µL for the first only) of a liposome solution at a concentration of 1.31 mM were added into a 0.05 mM and/or 0.1 mM peptide solution. An initial 2-μL injection was discarded from each dataset in order to remove the effect of titrant diffusion across the syringe tip during the equilibration process. Each injection lasted 20 s. The titrant was injected at 4 min intervals to ensure that the titration peak returned to the baseline before the next injection. To ensure a homogeneous mixing in the cell, the stirrer speed was kept constant at 300 rpm.
A complete binding of the peptide to lipid vesicles provides the possibility for determination of the total binding enthalpy (∆H) as well as a binding constant (Ka), reflecting the affinity of the lipopeptide to liposomes, stoichiometry of binding (n), that is, the number of phospholipids per peptide, by fitting the titration result data to one set of sites’ model using Origin 7 from MicroCal. Changes in entropy (∆S) and the Gibbs free energy (∆G) were calculated from Equation (1), where factor 55.5 is the molar concentration of water, R is the gas constant (1.986 cal·mol^−1·K^−1) and T is the absolute temperature:∆G = -RTln(55.5Ka) = ∆H-T∆S(1)
The liposomes for ITC experiments were made of POPC or POPG lipids. The lipids were dissolved in a chloroform:methanol (2:1; v/v) mixture, evaporated under nitrogen and desiccated under vacuum overnight to remove any residual solvents. Afterwards, the dry lipid film was resuspended in a phosphate buffer solution and shaken for 2 h at room temperature (phase transition point, Tm = −2 °C) to obtain multilamellar vesicles (MLVs). […]

S. aureus PCM 2054 = assay type: cell-based, Staphylococcus aureus; settings: S. aureus PCM 2054, Mueller-Hinton broth + 1% human serum
Method: Additionally, we performed a comparative analysis of MICs obtained for the tested compounds against S. aureus PCM2054 in two types of growth medium, i.e., the standard MHB and MHB supplemented with 1% human serum and in the absence of 1% serum. The assay was performed as described in 4.3.1.

Row | Structure (SMILES) | remaining at 5 h, 75 µg/mL [1] | MIC100 (S. aureus USA300) | pKITC [2] | binding constants (order of) ([2]; POPC vesicles) | MIC (S. aureus PCM 2054)
1 | CCCCC(=O)NCCC(=O)N[C@@H](Cc1c[nH]cn1)C(=O)NCCOCCOCC(=O)N[C@H](C(=O)N[C@@H](CCCCN)C(=O)N[C@@H](CCCCN)C(=O)N[C@H](C(=O)N[C@@H](CC(C)C)C(=O)N[C@@H](CO)C(=O)N[C@@H](CCCCN)C(=O)N[C@H](C(=O)N[C@@H](CCCCN)C(=O)N[C@@H](CCCCN)C(=O)N[C@@H](CC(C)C)C(=O)N[C@@H](CC(C)C)C(N)=O)[C@@H](C)CC)[C@@H](C)CC)[C@@H](C)CC [C5-CAR-PEG-DK5] ({Pentanoyl-βAla}-H[AEEA]IKKILSKIKKLL-NH2) | 77% |  |  |  | 
2 | CCCCCCCCCCCC(=O)NCCC(=O)N[C@@H](Cc1c[nH]cn1)C(=O)NCCOCCOCC(=O)N[C@H](C(=O)N[C@@H](CCCCN)C(=O)N[C@@H](CCCCN)C(=O)N[C@H](C(=O)N[C@@H](CC(C)C)C(=O)N[C@@H](CO)C(=O)N[C@@H](CCCCN)C(=O)N[C@H](C(=O)N[C@@H](CCCCN)C(=O)N[C@@H](CCCCN)C(=O)N[C@@H](CC(C)C)C(=O)N[C@@H](CC(C)C)C(N)=O)[C@@H](C)CC)[C@@H](C)CC)[C@@H](C)CC [C12-CAR-PEG-DK5] ({Lauroyl-βAla}-H[AEEA]IKKILSKIKKLL-NH2) |  | 12.5 µg/mL (≈ 6.38 µM) | 5.38 ± 0.14 |  | 
3 | CC[C@H](C)[C@H](NC(=O)COCCOCCNC(=O)[C@H](Cc1c[nH]cn1)NC(=O)CCN)C(=O)N[C@@H](CCCCN)C(=O)N[C@@H](CCCCN)C(=O)N[C@H](C(=O)N[C@@H](CC(C)C)C(=O)N[C@@H](CO)C(=O)N[C@@H](CCCCN)C(=O)N[C@H](C(=O)N[C@@H](CCCCN)C(=O)N[C@@H](CCCCN)C(=O)N[C@@H](CC(C)C)C(=O)N[C@@H](CC(C)C)C(N)=O)[C@@H](C)CC)[C@@H](C)CC [CAR-PEG-DK5] (H-[βAla]H[AEEA]IKKILSKIKKLL-NH2; N-terminus and C-terminus assumed) |  | >200 µg/mL |  |  | 
4 | CCCCC(=O)N[C@H](C(=O)N[C@@H](CCCCN)C(=O)N[C@@H](CCCCN)C(=O)N[C@H](C(=O)N[C@@H](CC(C)C)C(=O)N[C@@H](CO)C(=O)N[C@@H](CCCCN)C(=O)N[C@H](C(=O)N[C@@H](CCCCN)C(=O)N[C@@H](CCCCN)C(=O)N[C@@H](CC(C)C)C(=O)N[C@@H](CC(C)C)C(N)=O)[C@@H](C)CC)[C@@H](C)CC)[C@@H](C)CC [Compound C5-DK5] (Pentanoyl-IKKILSKIKKLL-NH2) | 46.2% | 25 µg/mL (≈ 16.6 µM) |  | either a lack of interactions or that the binding was too weak to be detectable by ITC | 25 µg/mL
5 | CCCCCCCCCCCC(=O)N[C@H](C(=O)N[C@@H](CCCCN)C(=O)N[C@@H](CCCCN)C(=O)N[C@H](C(=O)N[C@@H](CC(C)C)C(=O)N[C@@H](CO)C(=O)N[C@@H](CCCCN)C(=O)N[C@H](C(=O)N[C@@H](CCCCN)C(=O)N[C@@H](CCCCN)C(=O)N[C@@H](CC(C)C)C(=O)N[C@@H](CC(C)C)C(N)=O)[C@@H](C)CC)[C@@H](C)CC)[C@@H](C)CC [Compound C12-DK5] (Lauroyl-IKKILSKIKKLL-NH2) |  | 25 µg/mL (≈ 15.6 µM) | 4.40 ± 0.19 |  | 25 µg/mL
